Results on 14 compounds are retold here after ChEMBL document CHEMBL3751805, “Novel Tacrine-Benzofuran Hybrids as Potent Multitarget-Directed Ligands for the Treatment of Alzheimer's Disease: Design, Synthesis, Biological Evaluation, and X-ray Crystallography” (J Med Chem, 2016).

Acetylcholinesterase, sequence (P22303 whole entry): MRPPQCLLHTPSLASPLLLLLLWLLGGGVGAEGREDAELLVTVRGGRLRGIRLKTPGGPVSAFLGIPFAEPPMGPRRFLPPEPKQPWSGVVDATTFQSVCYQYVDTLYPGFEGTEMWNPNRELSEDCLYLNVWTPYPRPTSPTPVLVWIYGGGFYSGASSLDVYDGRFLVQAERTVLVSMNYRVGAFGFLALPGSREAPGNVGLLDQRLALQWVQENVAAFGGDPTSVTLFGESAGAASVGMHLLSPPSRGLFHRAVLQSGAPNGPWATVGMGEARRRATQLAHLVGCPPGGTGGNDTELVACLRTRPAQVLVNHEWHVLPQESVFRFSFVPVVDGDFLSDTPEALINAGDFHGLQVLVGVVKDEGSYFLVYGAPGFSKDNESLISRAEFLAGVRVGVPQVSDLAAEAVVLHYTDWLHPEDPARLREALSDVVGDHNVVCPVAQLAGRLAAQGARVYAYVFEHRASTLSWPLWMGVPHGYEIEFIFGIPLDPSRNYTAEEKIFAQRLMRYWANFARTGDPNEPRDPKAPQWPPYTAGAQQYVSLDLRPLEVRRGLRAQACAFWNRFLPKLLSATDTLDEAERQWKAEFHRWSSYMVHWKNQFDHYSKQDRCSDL
Amyloid-beta precursor protein, sequence (P05067 whole entry): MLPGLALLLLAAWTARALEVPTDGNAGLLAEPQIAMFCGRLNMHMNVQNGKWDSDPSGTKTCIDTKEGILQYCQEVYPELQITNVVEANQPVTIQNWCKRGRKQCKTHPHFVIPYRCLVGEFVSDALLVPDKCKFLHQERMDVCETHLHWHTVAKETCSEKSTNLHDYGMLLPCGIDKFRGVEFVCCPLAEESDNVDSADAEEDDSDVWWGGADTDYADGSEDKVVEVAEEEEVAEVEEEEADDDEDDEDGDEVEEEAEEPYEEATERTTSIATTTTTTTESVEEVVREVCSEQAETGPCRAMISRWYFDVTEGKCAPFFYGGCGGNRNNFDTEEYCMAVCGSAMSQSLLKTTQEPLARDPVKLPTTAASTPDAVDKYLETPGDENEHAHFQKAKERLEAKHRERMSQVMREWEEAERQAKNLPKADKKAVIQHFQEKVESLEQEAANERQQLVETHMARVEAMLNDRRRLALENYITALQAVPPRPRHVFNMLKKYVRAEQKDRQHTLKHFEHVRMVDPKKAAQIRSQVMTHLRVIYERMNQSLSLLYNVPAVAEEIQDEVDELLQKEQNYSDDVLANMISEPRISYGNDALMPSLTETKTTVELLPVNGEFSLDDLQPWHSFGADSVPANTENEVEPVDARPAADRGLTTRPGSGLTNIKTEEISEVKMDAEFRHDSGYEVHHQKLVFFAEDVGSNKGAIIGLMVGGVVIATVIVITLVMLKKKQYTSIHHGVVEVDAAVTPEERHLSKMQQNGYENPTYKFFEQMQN

The target in the first experiment is Cholinesterase (Homo sapiens, UniProt P06276).
Cholinesterase, sequence (P06276 whole entry): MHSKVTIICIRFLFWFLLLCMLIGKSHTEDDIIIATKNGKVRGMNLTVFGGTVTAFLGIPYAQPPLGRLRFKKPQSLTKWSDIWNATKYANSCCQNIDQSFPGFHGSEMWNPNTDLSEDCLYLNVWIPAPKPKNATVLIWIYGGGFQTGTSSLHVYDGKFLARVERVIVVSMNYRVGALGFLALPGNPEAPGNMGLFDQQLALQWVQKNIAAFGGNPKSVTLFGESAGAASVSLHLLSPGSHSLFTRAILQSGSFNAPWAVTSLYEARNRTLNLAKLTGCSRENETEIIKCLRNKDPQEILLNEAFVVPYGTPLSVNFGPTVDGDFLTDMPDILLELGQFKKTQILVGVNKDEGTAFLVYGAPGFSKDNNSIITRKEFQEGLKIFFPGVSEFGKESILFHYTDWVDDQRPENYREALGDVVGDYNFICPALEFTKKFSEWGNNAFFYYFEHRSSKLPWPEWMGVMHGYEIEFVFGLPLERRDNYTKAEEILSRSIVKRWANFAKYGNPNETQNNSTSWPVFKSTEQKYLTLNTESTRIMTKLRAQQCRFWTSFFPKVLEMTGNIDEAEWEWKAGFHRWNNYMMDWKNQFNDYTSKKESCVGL
Conditions: not given
For `COc1cccc2cc(CN(CCCCCCNc3c4c(nc5ccccc35)CCC4)Cc3cc4cccc(OC)c4o3)oc12`, half-maximal inhibition (IC50) was put at 2.3 nM.

In the case of `COc1cccc2cc(CNCCCCCCCNc3c4c(nc5ccccc35)CCCCC4)oc12`, the IC50 came to 1.23 nM.

Compound `c1ccc2oc(CNCCCCCCNc3c4c(nc5ccccc35)CCC4)cc2c1` registered an IC50 of 2.48 nM. Against the preceding compound, the IC50 is about 2-fold higher.

On to `COc1cccc2cc(CN(CCCCCCCNc3c4c(nc5ccccc35)CCCCC4)Cc3cc4cccc(OC)c4o3)oc12`, for which the IC50 turned out to be 4.87 nM.

`COc1cccc2cc(CNCCCCCCNc3c4c(nc5ccccc35)CCCC4)oc12` returned an IC50 of 0.49 nM.

The compound `O=C(NCCCCCCNc1c2c(nc3ccccc13)CCCCC2)c1cc2ccccc2o1` came in with an IC50 of 10.8 nM. Against the preceding compound, the IC50 is about 22-fold higher.

For `c1ccc2oc(CNCCCCCCCNc3c4c(nc5ccccc35)CCC4)cc2c1`, half-maximal inhibition (IC50) was put at 2.54 nM.

Compound `COc1cccc2cc(C(=O)NCCCCCCNc3c4c(nc5ccccc35)CCCC4)oc12` had an IC50 of 10.2 nM.

Compound `COc1cccc2cc(CNCCCCCCNc3c4c(nc5ccccc35)CCC4)oc12` registered an IC50 of 1.3 nM.

The compound `O=C(NCCCCCCNc1c2c(nc3ccccc13)CCC2)c1cc2ccccc2o1` came in with an IC50 of 15.7 nM.

The compound `COc1cccc2cc(C(=O)NCCCCCCNc3c4c(nc5ccccc35)CCC4)oc12` registered an IC50 of 80.6 nM.

Compound `COc1cccc2cc(C(=O)NCCCCCCCNc3c4c(nc5ccccc35)CCCC4)oc12` yielded an IC50 of 7.35 nM. This IC50 is about 11-fold lower than that of the compound before.

`COc1cccc2cc(C(=O)NCCCCCCCNc3c4c(nc5ccccc35)CCCCC4)oc12` yielded an IC50 of 31.9 nM.

With `COc1cccc2cc(C(=O)NCCCCCCNc3c4c(nc5ccccc35)CCCCC4)oc12`, half-maximal inhibition (IC50) required 30 nM.

The target in the next experiment is Beta-secretase 1 (Homo sapiens, UniProt P56817).
Beta-secretase 1, sequence (P56817 whole entry): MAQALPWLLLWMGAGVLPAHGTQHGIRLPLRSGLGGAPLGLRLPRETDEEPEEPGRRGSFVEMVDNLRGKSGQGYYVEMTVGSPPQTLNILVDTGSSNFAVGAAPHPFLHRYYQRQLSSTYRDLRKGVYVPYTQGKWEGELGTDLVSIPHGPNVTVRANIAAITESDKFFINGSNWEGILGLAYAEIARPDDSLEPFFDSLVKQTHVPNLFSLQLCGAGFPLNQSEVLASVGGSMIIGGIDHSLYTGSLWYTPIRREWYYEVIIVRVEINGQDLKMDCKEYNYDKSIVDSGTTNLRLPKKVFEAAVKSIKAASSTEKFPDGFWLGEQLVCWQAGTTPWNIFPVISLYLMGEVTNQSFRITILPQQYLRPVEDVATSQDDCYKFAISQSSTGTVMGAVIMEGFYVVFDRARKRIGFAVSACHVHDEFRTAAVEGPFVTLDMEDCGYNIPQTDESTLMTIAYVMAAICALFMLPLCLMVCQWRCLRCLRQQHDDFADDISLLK
Conditions: not given
`COc1cccc2cc(C(=O)NCCCCCCCNc3c4c(nc5ccccc35)CCCC4)oc12` had an IC50 of 430 nM. This counts as sub-micromolar.

A further experiment has as its target Acetylcholinesterase (Homo sapiens, UniProt P22303).
Conditions: not given
Take `COc1cccc2cc(CN(CCCCCCNc3c4c(nc5ccccc35)CCC4)Cc3cc4cccc(OC)c4o3)oc12`: the IC50 is 7490 nM.

Turning to `COc1cccc2cc(CNCCCCCCCNc3c4c(nc5ccccc35)CCCCC4)oc12`, the half-inhibitory concentration (IC50) was determined as 2.56 nM.

As to `c1ccc2oc(CNCCCCCCNc3c4c(nc5ccccc35)CCC4)cc2c1`, the IC50 is 47 nM.

Take `COc1cccc2cc(CN(CCCCCCCNc3c4c(nc5ccccc35)CCCCC4)Cc3cc4cccc(OC)c4o3)oc12`: the IC50 came to 199 nM.

Compound `COc1cccc2cc(CNCCCCCCNc3c4c(nc5ccccc35)CCCC4)oc12` gave an IC50 of 15.3 nM. Against the preceding compound, the IC50 is about 13-fold lower.

For the compound `O=C(NCCCCCCNc1c2c(nc3ccccc13)CCCCC2)c1cc2ccccc2o1`, the IC50 was determined as 308 nM.

Take `c1ccc2oc(CNCCCCCCCNc3c4c(nc5ccccc35)CCC4)cc2c1`: the IC50 was found to be 10.8 nM.

Regarding `COc1cccc2cc(C(=O)NCCCCCCNc3c4c(nc5ccccc35)CCCC4)oc12`, the IC50 amounted to 24.4 nM.

Regarding `COc1cccc2cc(CNCCCCCCNc3c4c(nc5ccccc35)CCC4)oc12`, the IC50 stood at 63.1 nM.

In turn, `O=C(NCCCCCCNc1c2c(nc3ccccc13)CCC2)c1cc2ccccc2o1` registered an IC50 of 545 nM.

Take `COc1cccc2cc(C(=O)NCCCCCCNc3c4c(nc5ccccc35)CCC4)oc12`: the 50% inhibitory concentration (IC50) came out at 1680 nM.

`COc1cccc2cc(C(=O)NCCCCCCCNc3c4c(nc5ccccc35)CCCC4)oc12`: the IC50 came out at 44.2 nM.

Compound `COc1cccc2cc(C(=O)NCCCCCCCNc3c4c(nc5ccccc35)CCCCC4)oc12` came in with an IC50 of 416 nM.

For the compound `COc1cccc2cc(C(=O)NCCCCCCNc3c4c(nc5ccccc35)CCCCC4)oc12`, the IC50 came out at 32.3 nM.

A further experiment has as its target Amyloid-beta precursor protein (Homo sapiens, UniProt P05067). The note with it: at 10 µM.
Description: Inhibition of HFIP pretreated Amyloid beta (1 to 42) (unknown origin) self-induced aggregation at 10 uM incubated for 24 hrs by Thioflavin T-based fluorometric assay
On to `COc1cccc2cc(CN(CCCCCCNc3c4c(nc5ccccc35)CCC4)Cc3cc4cccc(OC)c4o3)oc12`, for which the inhibition came to 38.5%.

As for `COc1cccc2cc(CNCCCCCCCNc3c4c(nc5ccccc35)CCCCC4)oc12`, the inhibition was 31.9%.

`c1ccc2oc(CNCCCCCCNc3c4c(nc5ccccc35)CCC4)cc2c1` registered an inhibition of 9.3%.

As to `COc1cccc2cc(CN(CCCCCCCNc3c4c(nc5ccccc35)CCCCC4)Cc3cc4cccc(OC)c4o3)oc12`, the inhibition was 37.3%.

`COc1cccc2cc(CNCCCCCCNc3c4c(nc5ccccc35)CCCC4)oc12` came in with an inhibition of 52%.

`O=C(NCCCCCCNc1c2c(nc3ccccc13)CCCCC2)c1cc2ccccc2o1` showed an inhibition of 24.2%.

In turn, `c1ccc2oc(CNCCCCCCCNc3c4c(nc5ccccc35)CCC4)cc2c1` registered an inhibition of 76.2%.

With `COc1cccc2cc(C(=O)NCCCCCCNc3c4c(nc5ccccc35)CCCC4)oc12`, the inhibition was 40.2%.

`COc1cccc2cc(CNCCCCCCNc3c4c(nc5ccccc35)CCC4)oc12`: the inhibition worked out at 64.1%.

As to `O=C(NCCCCCCNc1c2c(nc3ccccc13)CCC2)c1cc2ccccc2o1`, the inhibition worked out at 18.7%.

In turn, `COc1cccc2cc(C(=O)NCCCCCCNc3c4c(nc5ccccc35)CCC4)oc12` came in with an inhibition of 32.6%.

In the case of `COc1cccc2cc(C(=O)NCCCCCCCNc3c4c(nc5ccccc35)CCCC4)oc12`, the inhibition was 42.5%.

`COc1cccc2cc(C(=O)NCCCCCCCNc3c4c(nc5ccccc35)CCCCC4)oc12` came in with an inhibition of 17.7%.

Compound `COc1cccc2cc(C(=O)NCCCCCCNc3c4c(nc5ccccc35)CCCCC4)oc12` registered an inhibition of 18.7%.

As a reminder, the IC50 is the point on the concentration scale where inhibition reaches its midpoint. The low end stands for higher potency, the high end for lower potency. As usually defined, the inhibition is the relative decrease from the control value, in per cent.
